These are literature values, as cited in patent US12133844B2, “Methods of treating epithelioid cell tumors” (Abraxis BioScience, LLC, priority 2015, dated 2024).

For series [1], the target named is T1, mTORC1 (Homo sapiens, UniProt P42345). Further details: endogenous in cells; host or cells: HUVEC.
For series [2] the following is noted: in vivo.
Another series deals with HSA (Homo sapiens, UniProt P02768).
For series [3], the target named is T1, mTORC1. Further details: endogenous in cells. To be noted: HEK293 cells, 0.2 μM-5 μM.
Series [4] deals with T1, mTORC1. On the set-up: endogenous in cells; host or cells: HUVEC. To be noted: HUVEC cells, 10 nM-1 μM.

Like-named read-outs stand apart in the source and are kept apart here.

Chain of HSA (P02768 25-609): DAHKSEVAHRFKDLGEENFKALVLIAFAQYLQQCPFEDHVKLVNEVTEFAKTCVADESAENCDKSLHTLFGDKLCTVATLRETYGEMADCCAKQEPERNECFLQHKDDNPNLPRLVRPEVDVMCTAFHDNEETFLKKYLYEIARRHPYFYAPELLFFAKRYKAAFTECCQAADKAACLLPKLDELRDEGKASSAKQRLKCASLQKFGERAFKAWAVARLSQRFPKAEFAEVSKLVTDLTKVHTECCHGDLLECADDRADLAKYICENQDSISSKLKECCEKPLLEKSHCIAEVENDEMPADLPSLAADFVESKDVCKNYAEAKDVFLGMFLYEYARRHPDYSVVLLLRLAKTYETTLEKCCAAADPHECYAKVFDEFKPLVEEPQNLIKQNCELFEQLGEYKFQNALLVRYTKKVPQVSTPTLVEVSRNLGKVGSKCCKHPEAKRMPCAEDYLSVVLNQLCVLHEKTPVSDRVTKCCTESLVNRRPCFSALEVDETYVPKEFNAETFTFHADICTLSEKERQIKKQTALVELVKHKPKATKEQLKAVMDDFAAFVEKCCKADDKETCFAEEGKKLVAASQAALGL

With `COc1ccc(-c2ccc3c(N4CCOCC4)nc(N4C[C@@H](C)O[C@@H](C)C4)nc3n2)cc1CO` [KU-0063794], the “inhibition of phosphorylation of mTORC1 at Ser2448” value on mTORC1 [1] is “dose-dependent and time-dependent”.

Turning to `COc1ccc(COc2cc3oc(=O)c4cc(C(C)O)ccc4c3cc2OC)cc1` (stereo not shown) [Palomid 529], in the series with ABCB1/ABCG2, the “affinity for ABCB1/ABCG2” value is listed as “lacks affinity”. For the same compound, the brain penetration entry in series [2] is reported as “good brain penetration”. For the compound `CO[C@H]1C[C@@H]2CC[C@@H](C)[C@@](O)(O2)C(=O)C(=O)N2CCCC[C@H]2C(=O)O[C@H]([C@H](C)C[C@@H]2CC[C@@H](O)[C@H](OC)C2)CC(=O)[C@H](C)/C=C(\C)[C@@H](O)[C@@H](OC)C(=O)[C@H](C)C[C@H](C)/C=C/C=C/C=C/1C` [Sirolimus, sirolimus], the “binding to HSA” value at HSA is “shown to bind HSA”. Regarding `CC(=O)O[C@@]12CO[C@@H]1C[C@H](O)[C@@]1(C)C(=O)[C@H](O)C3=C(C)[C@@H](OC(=O)[C@H](O)[C@@H](NC(=O)OC(C)(C)C)c4ccccc4)C[C@@](O)([C@@H](OC(=O)c4ccccc4)[C@H]21)C3(C)C` [docetaxel], the “binding to human plasma proteins” value in the series on human plasma proteins was “shown to bind”. As to WYE-354, the “inhibition of mTORC1” value at mTORC1 [3] and at mTORC1 [4] was “inhibits mTORC1” each time.
